Results taken from patent publication US20130183268A1, “DRUG COMBINATIONS WITH FLUORO-SUBSTITUTED OMEGA-CARBOXYARYL DIPHENYL UREA FOR THE TREATMENT AND PREVENTION OF DISEASES AND CONDITIONS” (BAYER HEALTHCARE LLC, priority 2010, published 2013).

Key:
[1] = Metabolite profile, incubation of [14C]regorafenib with liver microsomes (rat); assay type: in vitro ADME, Wistar rat; details: [14C]regorafenib 20 μM, liver microsomes 0.5 mg/mL, 60 min
Procedure: (§1) N-oxide (M-2), hydroxymethyl (M-3), de-methylated (M-4) and N-oxide-demethylated (M-5) metabolites of the fluoro-substituted diaryl urea of Formula (I) are shown below. They were identified as metabolites of regorafenib in vitro upon incubation with liver enzymes of various mammalian species (man, dog, rat, mouse). Studies reveal that its metabolites show high protein binding in man and animal species (data not shown). [table]

[2] = molecular target: T1, Lck-activated c-raf (Lck/c-raf) (Homo sapiens, UniProt P04049); experiment: c-raf (raf-1) biochemical assay; details: in words
T1 construct: GST-c-raf (from amino acid 302 to amino acid 648) and Lck (full-length); made in house; host or cells: Sf9 insect cells (baculovirus, co-infected with Lck baculovirus)
Procedure: The c-raf biochemical assay was performed with a c-raf enzyme that was activated (phosphorylated) by Lck kinase. Lck-activated c-raf (Lck/c-raf) was produced in Sf9 insect cells by co-infecting cells with baculoviruses expressing, under the control of the polyhedrin promoter, GST-c-raf (from amino acid 302 to amino acid 648) and Lck (full-length). Both baculoviruses were used at the multiplicity of infection of 2.5 and the cells were harvested 48 h post infection.
MEK-1 protein was produced in Sf9 insect cells by infecting cells with the baculovirus expressing GST-MEK-1 (full-length) fusion protein at the multiplicity of infection of 5 and harvesting the cells 48 hours post infection. Similar purification procedure was used for GST-c-raf 302-648 and GST-MEK-1.
Transfected cells were suspended at 100 mg of wet cell biomass per mL in a buffer containing 10 mM sodium phosphate, 140 mM sodium chloride pH 7.3, 0.5% Triton X-100 and the protease inhibitor cocktail. […]
Test compounds were serially diluted in DMSO using three-fold dilutions to stock concentrations ranging typically from 50 μM to 20 nM (final concentrations in the assay range from 1 μM to 0.4 nM). […] The filters were dried in a microwave, soaked in scintillation fluid and read in a Wallac 1205 Betaplate Counter (Wallac Inc., Atlanta, Ga., U.S.A.). The results were expressed as percent inhibition.

[3] = Pharmacokinetics in patients after 160 mg regorafenib co-precipitate tablet; details: analyte in plasma, 160 mg regorafenib co-precipitate tablet daily, day 21, n = 9, geometric mean
[4] = Metabolite profile, incubation of [14C]regorafenib with liver microsomes (man); assay type: in vitro ADME; details: [14C]regorafenib 20 μM, liver microsomes 0.5 mg/mL, 60 min
Procedure: as §1

[5] = Metabolite profile, incubation of [14C]regorafenib with liver microsomes (mouse); assay type: in vitro ADME, NMRI mouse; details: [14C]regorafenib 20 μM, liver microsomes 0.5 mg/mL, 60 min
Procedure: as §1

[6] = molecular target: mouse PDGFR (Mus musculus, UniProt P05622); experiment: Murine PDGFR FRET biochemical assay; details: in words
Procedure: This assay was formatted in a 96-well black plate (Costar 3915). The following reagents are used: Europium-labeled anti-phosphotyrosine antibody pY20 (Perand streptavidin-APC; poly GT-biotin from, and mouse PDGFR. The reaction conditions are as follows: 1 nM mouse PDGFR is combined with 20 μM ATP, 7 nM poly GT-biotin, 1 nM pY20 antibody, 5 nM streptavidin-APC, and 1% DMSO in assay buffer (50 mM HEPES pH 7.5, 10 mM MgCl2, 0.1 mM EDTA, 0.015% BRIJ 35, 0.1 mg/mL BSA, 0.1% mercaptoethanol). Reaction is initiated upon addition of enzyme. Final reaction volume in each well is 100 μL. After 90 minutes, the reaction is stopped by addition of 10 μL/well of 5 μM staurosporine. Plates are read at both 615 and 665 nm on a Perkin Elmer VictorV Multilabel counter at about 1 hour after the reaction is stopped. Signal is calculated as a ratio: (665 nm/615 nm)*10000 for each well.
For IC50 generation for both PDGFR and Flk-1, compounds were added prior to the enzyme initiation. A 50-fold stock plate was made with compounds serially diluted 1:3 in a 50% DMSO/50% dH2O solution. […] The data were expressed as percent inhibition: % inhibition=100−((Signal with inhibitor-background)/(Signal without inhibitor-background))*100

[7] = tested on: basal pERK in MDA-MB-231 cells; experiment: Bio-Plex phospho-ERK1/2 immunoassay; assay type: cell-based, human
Procedure: A 96 well pERK immunoassay, using laser flow cytometry (Bio-Rad) platform has been established to measure inhibition of basal pERK in breast cancer cell line. MDA-MB-231 cells were plated at 50,000 cells per well in 96 well microtitre plates in complete growth media. For effects of test compounds on basal pERK1/2 inhibition, the next day after plating, MDA-MB-231 cells were transferred to DMEM with 0.1% BSA and incubated with test compounds diluted 1:3 to a final concentration of 3 μM to 12 nM in 0.1% DMSO. Cells were incubated with test compounds for 2 h, washed, and lysed in Bio-Plex whole cell lysis buffer A. Samples are diluted with buffer B 1:1 (v/v) and directly transferred to assay plate or frozen at −80 C. degrees until processed. 50 μL of diluted MDA-MB-231 cell lysates were incubated with about 2000 of 5 micron Bio-Plex beads conjugated with an anti-ERK1/2 antibody overnight on a shaker at room temperature. The next day, biotinylated phospho-ERK1/2 sandwich immunoassay was performed, beads are washed 3 times during each incubation and then 50 μL of PE-strepavidin was used as a developing reagent. The relative fluorescence units of pERK1/2 were detected by counting 25 beads with Bio-Plex flow cell (probe) at high sensitivity. The IC50 was calculated by taking untreated cells as maximum and no cells (beads only) as background using in an Excel spreadsheet based program.

Chain of mouse PDGFR (P05622 553-1098 limits assumed): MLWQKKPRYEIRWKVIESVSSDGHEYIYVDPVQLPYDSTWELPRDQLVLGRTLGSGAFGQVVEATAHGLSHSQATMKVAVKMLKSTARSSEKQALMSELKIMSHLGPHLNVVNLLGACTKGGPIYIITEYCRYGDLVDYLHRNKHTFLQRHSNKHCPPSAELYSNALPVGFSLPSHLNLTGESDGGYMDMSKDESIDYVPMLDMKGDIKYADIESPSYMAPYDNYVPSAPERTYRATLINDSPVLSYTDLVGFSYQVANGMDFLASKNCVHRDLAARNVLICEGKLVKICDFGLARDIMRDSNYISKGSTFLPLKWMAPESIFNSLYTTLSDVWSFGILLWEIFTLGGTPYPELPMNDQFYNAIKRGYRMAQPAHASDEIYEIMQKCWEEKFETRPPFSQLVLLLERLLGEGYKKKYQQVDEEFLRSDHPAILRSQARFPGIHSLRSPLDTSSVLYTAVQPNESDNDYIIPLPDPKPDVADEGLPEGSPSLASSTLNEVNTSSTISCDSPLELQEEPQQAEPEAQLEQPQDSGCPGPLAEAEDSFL
T1 sequence (P04049 302-648): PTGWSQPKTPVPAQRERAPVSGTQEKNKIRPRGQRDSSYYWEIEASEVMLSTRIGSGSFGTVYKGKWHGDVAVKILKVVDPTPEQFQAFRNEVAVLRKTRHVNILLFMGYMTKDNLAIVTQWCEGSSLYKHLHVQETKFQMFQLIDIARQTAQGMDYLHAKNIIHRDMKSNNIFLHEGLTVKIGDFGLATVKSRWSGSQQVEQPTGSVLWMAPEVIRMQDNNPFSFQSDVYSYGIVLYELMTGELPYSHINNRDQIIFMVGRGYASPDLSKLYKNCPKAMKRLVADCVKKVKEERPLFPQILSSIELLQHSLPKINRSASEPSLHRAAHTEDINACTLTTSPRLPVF

CNC(=O)c1cc(Oc2ccc(NC(=O)Nc3ccc(Cl)c(C(F)(F)F)c3)c(F)c2)ccn1 [Example 1, 4{4-[3-(4-chloro-3-trifluoromethylphenyl)-ureido]-3-fluorophenoxy}-pyridine-2-carboxylic acid methylamide]
% of radioactivity, Wistar rat [1]: 75.7%
inhibition of raf kinase [2]: potent inhibition
AUC Day 21 [3]: 61500 ng·h/mL
Cmax Day 21 [3]: 4170 ng/mL
% of radioactivity, Man [4]: 59.1%
% of radioactivity, NMRI mouse [5]: 57.8%
inhibition of PDGFR kinase [6]: significant inhibition
IC50 ([7]; Homo sapiens, MDA-MB-231 cells, 2 h): 22 nM
inhibition of basal pERK ([7]; in words): significant inhibition
